Measurements as given in US5998430A, “Use of trospium chloride and 2-component system for the same” (Dr. R. Pfleger Chemische Fabrik GmbH, priority 1996, dated 1999).

How the values were obtained:
[1] = oral and rectal administration forms; cited from earlier work
[2] = test system: smooth muscle cells of the detrusor; assay: internal investigations: direct (musculotropic) action on smooth muscle cells of the detrusor; type: cell-based
From the text: It will be appreciated that the active agent trospium chloride acts as an anticholinergic, i.e. it occupies receptors of the parasympathetic nervous system, without causing the effects induced by the natural neurotransmitter acetyl choline (neurotropic action). The anticholinergic power of trospium chloride in vitro is 20 times greater than that of oxybutynin (Eckert R. E., Wilhelm A., Schwantes U., Utz J. Alloussi S., Trautwein W. & Ziegler M., Modulation of the cytoplasmic Ca^2+ concentration of isolated myocytes of the detrusor vesicae by anticholinergics, Akt. Urol. 26, 46, 1995). […] These musculotropic characteristics are particularly important in the case of direct administration to the bladder.

[3] = stability of the aqueous solution during storage and transportation; type: physicochemical
Method: Accordingly, the invention provides for an aqueous trospium chloride solution prepared from two components, as described above. For the aqueous solution to remain stable for a long time during storage and transportation, the pH-value should be lower than 4.5. However, such a solution has never been considered suitable for administration to the bladder and is also unacceptable for physiological reasons. Therefore the invention assumes that the aqueous solution is prepared prior to administration with a pH-value equal to or greater than 4.5, in order to exclude from the outset ageing, storage and transportation problems.

[4] = plasma concentrations of trospium chloride after intravesicular instillation; type: in vivo; conditions: intravesicular instillation of 7.5 mg trospium chloride/20 ml; period of 12 hours; sensitive, validated measuring method
Method: It is particularly advantageous to prepare said aqueous solution with a pH-value≥4.5 immediately prior to administration, in order to prevent any decomposition of the active agent trospium chloride. In particular, the pH-value of the inventive formulation is 5.0 to 7.5, so that it falls entirely within the pH-value range of the normal urine of healthy humans. […] This was confirmed by measuring plasma concentrations of trospium chloride after intravesicular instillation of 7.5 mg trospium chloride/20 ml for a period of 12 hours.

bladder tissue [5] = assay: study on beagles concerning local compatibility following once daily intravesical instillation over 4 weeks; type: in vivo; conditions: selected formulation
[6] = test system: isolated myocytes of the detrusor vesicae; conditions: greater than that of oxybutynin; cited from earlier work
[7] = compared with administration of equivalent oral dosages; cited from earlier work
bladder tissue [8] = conditions: rabbits; intravesical instillation of crushed tablets; cited from earlier work

| SMILES | absorption from the intestinal lumen into the system [1] | direct action on smooth muscle cells of the detrusor (basal Ca^2+ flow) [2] | pH-value for the aqueous solution to remain stable for a long time [3] | plasma concentrations [4] | local compatibility (local adverse effects to the bladder tissue) (bladder tissue [5]) | anticholinergic power in vitro, relative to oxybutynin [6] | absorption following intravesicular instillation [7] | inflammatory processes in the region of the bladder tissue (histological evaluation) (bladder tissue [8]) |
| --- | --- | --- | --- | --- | --- | --- | --- | --- |
| O=C(O[C@H]1C[C@H]2CC[C@@H](C1)[N+]21CCCC1)C(O)(c1ccccc1)c1ccccc1 [trospium chloride] | poor absorption | inhibition of the basal Ca^2+ flow | lower than 4.5 | At no time plasma concentrations were detected that were above the detection limit | did not lead to local adverse effects to the bladder tissue | 20 times | – | – |
| CCN(CC)CC#CCOC(=O)C(O)(c1ccccc1)C1CCCCC1 (centres unmarked) [oxybutynin] | – | – | – | – | – | – | absorbed to a greater extent | Inflammatory processes were detected |
